The source of these data is ChEMBL document CHEMBL5154747, “Discovery of new carbonic anhydrase IX inhibitors as anticancer agents by toning the hydrophobic and hydrophilic rims of the active site to encounter the dual-tail approach” (Eur J Med Chem, 2022).

The structures appear in SMILES notation. Where only a bound is given, the exact number is not on record here.

Common to all, as to format: functional
What all share (details): read-out: GI

The subject of one assay is CAKI-1. The assay is described as follows: Anticancer activity against human CAKI-1 cells assessed as cell growth inhibition at 10 uM incubated for 48 hrs by SRB assay relative to control. On the technique in general: In SRB staining, fixed cells bind dye roughly in proportion to their protein.
The test system of the next assay is LOX IMVI. The assay is described as follows: Anticancer activity against human LOX IMVI cells assessed as cell growth inhibition at 10 uM incubated for 48 hrs by SRB assay relative to control.
For the next assay, the system named is SF-539. The assay is described as follows: Anticancer activity against human SF-539 cells assessed as cell growth inhibition at 10 uM incubated for 48 hrs by SRB assay relative to control.
The subject of a further assay is K562. The assay can be described thus: Anticancer activity against human K562 cells assessed as cell growth inhibition at 10 uM incubated for 48 hrs by SRB assay relative to control.
A further assay concerns RXF 393. The assay is described as follows: Anticancer activity against human RXF 393 cells assessed as cell growth inhibition at 10 uM incubated for 48 hrs by SRB assay relative to control.
In the next assay the test system is SK-OV-3. The assay is described as follows: Anticancer activity against human SK-OV-3 cells assessed as cell growth inhibition at 10 uM incubated for 48 hrs by SRB assay relative to control.
The subject of another assay is SK-MEL-28. The assay is described as follows: Anticancer activity against human SK-MEL-28 cells assessed as cell growth inhibition at 10 uM incubated for 48 hrs by SRB assay relative to control.
The subject of another assay is HCT-15. The assay can be described thus: Anticancer activity against human HCT-15 cells assessed as cell growth inhibition at 10 uM incubated for 48 hrs by SRB assay relative to control.
The next assay relates to SF-295. The assay is described as follows: Anticancer activity against human SF-295 cells assessed as cell growth inhibition at 10 uM incubated for 48 hrs by SRB assay relative to control.
For the next assay, the system named is NCI-H23. The assay is described as follows: Anticancer activity against human NCI-H23 cells assessed as cell growth inhibition at 10 uM incubated for 48 hrs by SRB assay relative to control.
The subject of a further assay is NCI-H322M. The assay can be described thus: Anticancer activity against human NCI-H322M cells assessed as cell growth inhibition at 10 uM incubated for 48 hrs by SRB assay relative to control.
The next assay deals with HOP-92. The assay is described as follows: Anticancer activity against human HOP-92 cells assessed as cell growth inhibition at 10 uM incubated for 48 hrs by SRB assay relative to control.
The next assay relates to DU-145. The assay is described as follows: Anticancer activity against human DU-145 cells assessed as cell growth inhibition at 10 uM incubated for 48 hrs by SRB assay relative to control.
The next assay concerns SW-620. The assay is described as follows: Anticancer activity against human SW-620 cells assessed as cell growth inhibition at 10 uM incubated for 48 hrs by SRB assay relative to control.
In the next assay the test system is A498. The assay is described as follows: Anticancer activity against human A498 cells assessed as cell growth inhibition at 10 uM incubated for 48 hrs by SRB assay relative to control.
The next assay deals with CCRF-CEM. The assay can be described thus: Anticancer activity against human CCRF-CEM cells assessed as cell growth inhibition at 10 uM incubated for 48 hrs by SRB assay relative to control.
The test system of the next assay is SNB-75. The assay is described as follows: Anticancer activity against human SNB-75 cells assessed as cell growth inhibition at 10 uM incubated for 48 hrs by SRB assay relative to control.
A further assay deals with OVCAR-4. The assay can be described thus: Anticancer activity against human OVCAR-4 cells assessed as cell growth inhibition at 10 uM incubated for 48 hrs by SRB assay relative to control.
The next assay concerns NCI-H522. The assay can be described thus: Anticancer activity against human NCI-H522 cells assessed as cell growth inhibition at 10 uM incubated for 48 hrs by SRB assay relative to control.
The next assay has as its system HT-29. The assay is described as follows: Anticancer activity against human HT-29 cells assessed as cell growth inhibition at 10 uM incubated for 48 hrs by SRB assay relative to control.

With `NS(=O)(=O)c1ccc(Nc2nc(N/N=C/c3ccc4c(c3)OCO4)nc(Nc3ccccc3)n2)cc1`, the inhibition of growth at 10 µM in the assay with CAKI-1 amounted to 54%; in the assay on LOX IMVI it was 73%; in the assay on SF-539, 83%; in the assay with K562, 66%; in the assay on RXF 393 it was 77%; with SK-OV-3, 34%. The inhibition of growth at 10 µM with SK-MEL-28 was determined as 32%; in the assay on HCT-15, 17%; with SF-295, 35%; in the assay on NCI-H23 it was 74%; with NCI-H322M, 38%; in the assay on HOP-92, 33%. In addition, the inhibition of growth at 10 µM in the assay on DU-145 stood at 58%; in the assay on SW-620, 50%; in the assay on A498, 48%; with CCRF-CEM it was 83%; in the assay on SNB-75, 46%; with OVCAR-4 it was 44%. Further, the inhibition of growth at 10 µM was determined as 39% in the assay on NCI-H522 and 59% in the assay on HT-29.

Consider `NS(=O)(=O)c1ccc(Nc2nc(N/N=C/c3ccc(Cl)cc3)nc(Nc3ccccc3)n2)cc1`, for which the inhibition of growth at 10 µM in the assay with CAKI-1 was 37%; in the assay on LOX IMVI, 39%; with SF-539, 46%; with K562 it was 40%; in the assay with RXF 393, 111%; in the assay with SK-OV-3, < 10%. The inhibition of growth at 10 µM is 24% in the assay with SK-MEL-28; 23% in the assay on HCT-15; 41% in the assay with SF-295; 12% with NCI-H23; < 10% in the assay with NCI-H322M; < 10% in the assay with HOP-92. Also, the inhibition of growth at 10 µM with DU-145 was 27%; in the assay on SW-620 it was < 10%; in the assay on A498 it was 23%; in the assay on CCRF-CEM it was 80%; in the assay on SNB-75, < 10%; in the assay on OVCAR-4 it was 16%. For the same compound, the inhibition of growth at 10 µM in the assay on NCI-H522 was 20%; with HT-29, 65%.

Regarding `Cc1ccc(/C=N/Nc2nc(Nc3ccccc3)nc(Nc3ccc(S(N)(=O)=O)cc3)n2)cc1`, the inhibition of growth at 10 µM in the assay with CAKI-1 is 39%; in the assay with LOX IMVI, 45%; in the assay with SF-539, 55%; in the assay on K562 it was 43%; in the assay on RXF 393 it was 102%; with SK-OV-3, < 10%. Also, the inhibition of growth at 10 µM is 24% with SK-MEL-28; 46% in the assay on HCT-15; 42% in the assay on SF-295; 23% in the assay with NCI-H23; > 10% in the assay on NCI-H322M; > 10% with HOP-92. In addition, the inhibition of growth at 10 µM was 34% in the assay on DU-145; < 10% in the assay with SW-620; 45% with A498; 57% in the assay with CCRF-CEM; 32% in the assay on SNB-75; 30% with OVCAR-4. The inhibition of growth at 10 µM amounted to 10% in the assay with NCI-H522 and 45% in the assay on HT-29.

With `NS(=O)(=O)c1ccc(Nc2nc(N/N=C/c3ccc(F)cc3)nc(Nc3ccccc3)n2)cc1`, the inhibition of growth at 10 µM came to 43% in the assay on CAKI-1; 39% in the assay on LOX IMVI; 37% in the assay on SF-539; 45% with K562; 42% in the assay with RXF 393; 28% in the assay with SK-OV-3. The inhibition of growth at 10 µM with SK-MEL-28 stood at 36%; in the assay on HCT-15, 20%; in the assay with SF-295 it was 29%; with NCI-H23, 45%; with NCI-H322M, 41%; in the assay on HOP-92, 36%. Moreover, the inhibition of growth at 10 µM was 68% in the assay with DU-145; 24% in the assay with SW-620; 80% in the assay with CCRF-CEM; < 10% with SNB-75; 44% in the assay with OVCAR-4; 84% in the assay on NCI-H522. Also, the inhibition of growth at 10 µM with HT-29 is 95%.

With `COc1ccc(/C=N/Nc2nc(Nc3ccccc3)nc(Nc3ccc(S(N)(=O)=O)cc3)n2)cc1`, the inhibition of growth at 10 µM in the assay with CAKI-1 was 24%; in the assay on LOX IMVI, 47%; with SF-539, 51%; with K562, 50%; in the assay on RXF 393 it was 77%; in the assay on SK-OV-3, < 10%. Further, the inhibition of growth at 10 µM in the assay on SK-MEL-28 was 21%; in the assay on HCT-15, 31%; in the assay on SF-295 it was 29%; in the assay with NCI-H23, 29%; in the assay with NCI-H322M, 15%; in the assay with HOP-92, < 10%. In addition, the inhibition of growth at 10 µM was found to be 34% in the assay with DU-145; 27% with SW-620; 38% with A498; 54% in the assay with CCRF-CEM; 18% with SNB-75; 33% in the assay on OVCAR-4. Also, the inhibition of growth at 10 µM worked out at 17% with NCI-H522 and 44% with HT-29.

For the compound `NS(=O)(=O)c1ccc(Nc2nc(N/N=C/c3ccccc3)nc(Nc3ccccc3)n2)cc1`, the inhibition of growth at 10 µM with CAKI-1 is 27%; in the assay with LOX IMVI, 35%; in the assay with SF-539 it was 23%; with K562, 40%; in the assay with RXF 393, 87%; in the assay with SK-OV-3 it was < 10%. Moreover, the inhibition of growth at 10 µM with SK-MEL-28 came to 27%; with HCT-15 it was 13%; with SF-295, 27%; with NCI-H23 it was 13%; with NCI-H322M, 27%; in the assay with HOP-92, 27%. For the same compound, the inhibition of growth at 10 µM with DU-145 is 38%; in the assay with SW-620 it was < 10%; with A498 it was 42%; in the assay with CCRF-CEM, 52%; in the assay with SNB-75, < 10%; with OVCAR-4, 15%. Moreover, the inhibition of growth at 10 µM in the assay on NCI-H522 was < 10%; in the assay with HT-29, 37%.

For the compound `NS(=O)(=O)c1ccc(Nc2nc(N/N=C/c3cccc4ccccc34)nc(Nc3ccccc3)n2)cc1`, the inhibition of growth at 10 µM in the assay with CAKI-1 was 23%; with LOX IMVI it was 44%; with SF-539 it was 22%; with K562, 41%; with RXF 393, 64%; with SK-OV-3 it was < 10%. Moreover, the inhibition of growth at 10 µM in the assay with SK-MEL-28 is 20%; in the assay on HCT-15 it was 29%; in the assay on SF-295, 29%; with NCI-H23, 10%; in the assay on NCI-H322M, < 10%; in the assay with HOP-92 it was < 10%. In addition, the inhibition of growth at 10 µM was 31% in the assay with DU-145; < 10% in the assay on SW-620; < 10% with A498; 81% with CCRF-CEM; < 10% in the assay on SNB-75; 16% with OVCAR-4. Besides, the results for the inhibition of growth at 10 µM in the assay with NCI-H522 and in the assay on HT-29 were 24% and 36%, respectively.
